We go through 1 compound from paper PMC7217483, “Early correction of synaptic long-term depression improves abnormal anxiety-like behavior in adult GluN2B-C456Y-mutant mice” (PLoS Biology, 2020).

Molecules are shown by their SMILES.

In series [1] the target is T1, GluN2B (Mus musculus, UniProt P35439+Q01097).
T1 construct: gene Grin2b; recombinant diheteromeric GluN1/GluN2B receptor; with GluN1
Description: potentiation of recombinant NMDAR currents in Xenopus oocytes. The format is cell-based.

Series [2] addresses T2, GluN2B (Mus musculus, UniProt P35439+Q01097, Q01097:C456Y, species not given).
T2 construct: gene Grin2b; recombinant diheteromeric GluN1/GluN2B-C456Y receptor; with GluN1
The series is described as above. The format is cell-based.

T1 sequence (Q01097 27-1482, other chains not shown): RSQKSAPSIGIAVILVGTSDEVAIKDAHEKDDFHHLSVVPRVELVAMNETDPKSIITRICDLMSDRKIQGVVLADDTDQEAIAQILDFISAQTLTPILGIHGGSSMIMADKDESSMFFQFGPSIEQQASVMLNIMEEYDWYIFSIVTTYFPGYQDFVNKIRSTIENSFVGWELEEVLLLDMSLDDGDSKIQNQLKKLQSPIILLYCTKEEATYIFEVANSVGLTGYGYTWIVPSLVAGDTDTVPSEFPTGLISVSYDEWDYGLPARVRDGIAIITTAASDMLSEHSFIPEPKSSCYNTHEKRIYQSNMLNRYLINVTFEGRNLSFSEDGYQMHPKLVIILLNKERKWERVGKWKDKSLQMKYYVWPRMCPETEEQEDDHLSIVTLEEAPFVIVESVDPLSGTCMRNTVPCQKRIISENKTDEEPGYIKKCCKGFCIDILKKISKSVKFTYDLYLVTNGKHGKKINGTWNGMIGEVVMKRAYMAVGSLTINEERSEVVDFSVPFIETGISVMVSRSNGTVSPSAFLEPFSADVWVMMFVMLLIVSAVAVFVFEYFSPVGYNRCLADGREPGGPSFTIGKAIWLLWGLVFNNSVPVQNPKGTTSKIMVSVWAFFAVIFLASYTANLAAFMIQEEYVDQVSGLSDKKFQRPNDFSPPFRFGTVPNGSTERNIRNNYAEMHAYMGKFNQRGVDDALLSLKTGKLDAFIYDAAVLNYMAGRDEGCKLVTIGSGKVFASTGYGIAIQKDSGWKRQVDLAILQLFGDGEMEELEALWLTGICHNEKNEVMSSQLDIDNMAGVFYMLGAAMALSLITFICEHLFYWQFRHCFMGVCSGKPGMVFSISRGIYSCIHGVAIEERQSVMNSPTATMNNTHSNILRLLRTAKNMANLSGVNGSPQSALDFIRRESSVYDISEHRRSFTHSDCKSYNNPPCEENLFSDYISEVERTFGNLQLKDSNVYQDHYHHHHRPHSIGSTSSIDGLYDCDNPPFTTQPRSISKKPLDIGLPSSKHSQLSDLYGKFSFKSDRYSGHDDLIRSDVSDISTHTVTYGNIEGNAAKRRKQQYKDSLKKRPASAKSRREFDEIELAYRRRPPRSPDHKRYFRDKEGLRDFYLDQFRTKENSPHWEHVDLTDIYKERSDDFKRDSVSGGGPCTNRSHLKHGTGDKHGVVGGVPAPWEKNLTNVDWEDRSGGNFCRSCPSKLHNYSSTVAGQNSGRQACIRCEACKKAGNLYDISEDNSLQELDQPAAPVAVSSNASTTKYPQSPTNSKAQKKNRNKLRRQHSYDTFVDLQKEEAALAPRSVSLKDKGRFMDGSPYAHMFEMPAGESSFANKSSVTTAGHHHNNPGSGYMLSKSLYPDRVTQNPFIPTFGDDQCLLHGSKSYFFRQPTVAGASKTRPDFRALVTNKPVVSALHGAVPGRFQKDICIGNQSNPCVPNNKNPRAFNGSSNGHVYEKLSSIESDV
T2 sequence (Q01097 27-1482 C456Y, other chains not shown): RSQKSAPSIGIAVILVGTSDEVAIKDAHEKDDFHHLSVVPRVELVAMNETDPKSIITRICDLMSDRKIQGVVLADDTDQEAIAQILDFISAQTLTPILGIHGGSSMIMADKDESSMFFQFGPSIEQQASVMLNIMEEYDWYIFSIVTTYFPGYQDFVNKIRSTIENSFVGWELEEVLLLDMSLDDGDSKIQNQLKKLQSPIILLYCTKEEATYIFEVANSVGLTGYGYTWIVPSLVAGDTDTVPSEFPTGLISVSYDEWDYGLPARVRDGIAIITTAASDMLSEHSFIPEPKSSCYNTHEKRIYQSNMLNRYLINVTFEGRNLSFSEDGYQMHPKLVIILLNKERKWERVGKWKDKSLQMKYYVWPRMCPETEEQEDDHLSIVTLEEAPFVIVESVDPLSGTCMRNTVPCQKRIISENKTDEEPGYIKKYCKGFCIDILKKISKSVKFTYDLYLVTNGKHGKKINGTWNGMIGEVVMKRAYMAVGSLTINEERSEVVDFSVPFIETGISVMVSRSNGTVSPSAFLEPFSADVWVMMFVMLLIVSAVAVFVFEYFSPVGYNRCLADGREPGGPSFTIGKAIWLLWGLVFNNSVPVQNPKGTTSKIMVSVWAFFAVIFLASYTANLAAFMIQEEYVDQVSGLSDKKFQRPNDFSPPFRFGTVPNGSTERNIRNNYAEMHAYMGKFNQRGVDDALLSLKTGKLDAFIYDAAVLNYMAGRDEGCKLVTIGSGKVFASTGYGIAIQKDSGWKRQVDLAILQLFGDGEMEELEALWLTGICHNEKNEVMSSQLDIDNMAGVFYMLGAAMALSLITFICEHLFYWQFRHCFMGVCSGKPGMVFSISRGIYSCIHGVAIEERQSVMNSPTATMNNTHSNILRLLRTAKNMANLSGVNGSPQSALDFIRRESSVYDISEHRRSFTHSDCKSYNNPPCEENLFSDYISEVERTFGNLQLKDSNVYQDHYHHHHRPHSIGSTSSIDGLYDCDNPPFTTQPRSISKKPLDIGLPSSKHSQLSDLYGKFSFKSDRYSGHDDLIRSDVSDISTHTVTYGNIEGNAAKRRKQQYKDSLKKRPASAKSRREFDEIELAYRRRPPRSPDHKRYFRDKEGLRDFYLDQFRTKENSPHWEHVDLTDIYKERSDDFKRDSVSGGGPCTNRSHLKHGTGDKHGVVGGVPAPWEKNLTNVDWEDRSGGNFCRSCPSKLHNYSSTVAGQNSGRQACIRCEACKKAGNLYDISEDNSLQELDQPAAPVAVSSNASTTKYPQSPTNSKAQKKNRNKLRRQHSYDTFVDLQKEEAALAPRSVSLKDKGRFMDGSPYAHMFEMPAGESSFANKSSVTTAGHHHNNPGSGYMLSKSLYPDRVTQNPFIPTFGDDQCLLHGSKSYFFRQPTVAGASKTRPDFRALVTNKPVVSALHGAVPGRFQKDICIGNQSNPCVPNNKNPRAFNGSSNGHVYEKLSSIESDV

`NCCCNCCCCNCCCN` [spermine]: the “potentiation of recombinant NMDAR currents in Xenopus oocytes” value was determined as 9.45 spermine potentiation in series [1] and 2.83 spermine potentiation in series [2].
